Calls of active or inactive are those of the source. No rule for the calls is given here.
Tested on: CCRIS mutagenicity, Ames/micronucleus/aberration tests
Test: CCRIS mutagenicity studies
[1] = Test System: AMES SALMONELLA TYPHIMURIUM, Strain/Indicator: TA1537, Metabolic Activation: RAT, LIVER, S-9, PCB, Method: STANDARD PLATE

For `Cc1cc(O)c2c(c1)C(=O)c1cc(O)cc(O)c1C2=O`, the mutagenic call (Test System: AMES SALMONELLA TYPHIMURIUM, Strain/Indicator: TA97, Metabolic Activation: NONE, Method: STANDARD PLATE) was “inactive; negative”, the mutagenic call (Test System: AMES SALMONELLA TYPHIMURIUM, Strain/Indicator: TA97, Metabolic Activation: RAT, LIVER, S-9, AROCLOR 1254, Method: STANDARD PLATE) was “active; positive” and the mutagenic call (Test System: AMES SALMONELLA TYPHIMURIUM, Strain/Indicator: TA97A, Metabolic Activation: NONE, Method: STANDARD PLATE) was “inactive; negative”. The mutagenic call (Test System: AMES SALMONELLA TYPHIMURIUM, Strain/Indicator: TA97A, Metabolic Activation: RAT, LIVER, S-9, AROCLOR 1254, Method: STANDARD PLATE) was “active; positive”, the mutagenic call (Test System: AMES SALMONELLA TYPHIMURIUM, Strain/Indicator: TA98, Metabolic Activation: HAMSTER, LIVER, S-9, AROCLOR 1254 (30%), Method: PREINCUBATION) was “inactive; negative” and the mutagenic call (Test System: AMES SALMONELLA TYPHIMURIUM, Strain/Indicator: TA98, Metabolic Activation: NONE, Method: PREINCUBATION) was “inactive; negative”. The mutagenic call (Test System: AMES SALMONELLA TYPHIMURIUM, Strain/Indicator: TA98, Metabolic Activation: RAT LIVER S-9, AROCLOR 1254 (30%), Method: PREINCUBATION) was “inactive; negative”, the mutagenic call (Test System: AMES SALMONELLA TYPHIMURIUM, Strain/Indicator: TA100, Metabolic Activation: HAMSTER LIVER S-9, AROCLOR 1254 (10% OR 30%), Method: PREINCUBATION) was “active; positive” and the mutagenic call (Test System: AMES SALMONELLA TYPHIMURIUM, Strain/Indicator: TA100, Metabolic Activation: NONE, Method: PREINCUBATION) was “inactive; negative”. For the same compound, the mutagenic call (Test System: AMES SALMONELLA TYPHIMURIUM, Strain/Indicator: TA100, Metabolic Activation: RAT LIVER S-9, AROCLOR 1254 (5% OR 30%), Method: PREINCUBATION) was “active; positive”, the mutagenic call (Test System: AMES SALMONELLA TYPHIMURIUM, Strain/Indicator: TA102, Metabolic Activation: NONE, Method: STANDARD PLATE) was “inactive; negative” and the mutagenic call (Test System: AMES SALMONELLA TYPHIMURIUM, Strain/Indicator: TA102, Metabolic Activation: S-9, Method: STANDARD PLATE) was “active; positive”. For the same compound, the mutagenic call (Test System: AMES SALMONELLA TYPHIMURIUM, Strain/Indicator: TA1535, Metabolic Activation: NONE, Method: STANDARD PLATE) was “inactive; negative”, the mutagenic call (Test System: AMES SALMONELLA TYPHIMURIUM, Strain/Indicator: TA1535, Metabolic Activation: RAT, LIVER, S-9, AROCLOR 1254, Method: STANDARD PLATE) was “inactive; negative” and the mutagenic call (Test System: AMES SALMONELLA TYPHIMURIUM, Strain/Indicator: TA1537, Metabolic Activation: RAT, LIVER, S-9, AROCLOR 1254, Method: STANDARD PLATE) was “active; positive”. For the same compound, the mutagenic call [1] was “active; positive”, the mutagenic call (Test System: AMES SALMONELLA TYPHIMURIUM, Strain/Indicator: TA1537, Metabolic Activation: RAT, LIVER, S-9, Method: PREINCUBATION) was “active; positive” and the mutagenic call (Test System: AMES SALMONELLA TYPHIMURIUM, Strain/Indicator: TA1538, Metabolic Activation: NONE, Method: STANDARD PLATE) was “inactive; negative”. For the same compound, the mutagenic call (Test System: AMES SALMONELLA TYPHIMURIUM, Strain/Indicator: TA1538, Metabolic Activation: RAT, LIVER, S-9, AROCLOR 1254, Method: STANDARD PLATE) was “inactive; negative”, the mutagenic call (Test System: AMES SALMONELLA TYPHIMURIUM, Strain/Indicator: TA2638, Metabolic Activation: S-9, Method: STANDARD PLATE) was “active; positive” and the mutagenic call (Test System: CHINESE HAMSTER V-79, Strain/Indicator: V-79 (HGPRT)/6-THIOGUANINE, Metabolic Activation: NONE, Method: SUSPENSION/PLATE) was “inactive; negative”. The mutagenic call (Test System: CHINESE HAMSTER V-79, Strain/Indicator: V-79 (HGPRT)/6-THIOGUANINE, Metabolic Activation: RAT, LIVER, S-9, AROCLOR 1254, Method: SUSPENSION/PLATE) was “inactive; negative”, the mutagenic call (Test System: CHINESE HAMSTER V-79, Strain/Indicator: V-79/8-AZAGUANINE, Metabolic Activation: NONE, Method: STANDARD PLATE) was “active; positive” and the mutagenic call (Test System: E. COLI, Strain/Indicator: WP2 (PKM101), Metabolic Activation: S-9, Method: STANDARD PLATE) was “inactive; negative”. The mutagenic call (Test System: E. COLI, Strain/Indicator: WP2 UVRA (PKM101), Metabolic Activation: S-9, Method: STANDARD PLATE) was “inactive; negative” and the mutagenic call (Test System: UDS RODENT HEPATOCYTES, Strain/Indicator: THY INCORP (NON-S-PHASE), Metabolic Activation: NONE, Method: AUTORADIOGRAPHY) was “active; positive”.
For `O=C1c2cc(O)cc(O)c2C(=O)c2c(O)cc(CO)cc21`, the mutagenic call [1] was “active; positive” and the mutagenic call (Test System: AMES SALMONELLA TYPHIMURIUM, Strain/Indicator: TA1537, Metabolic Activation: RAT, LIVER, S-9, POLYCHLORINATED BIPHENYLS, Method: STANDARD PLATE) was “active; positive”.
For `ClCc1cc2cccc3ccc4cc5ccccc5c1c4c32`, the mutagenic call (Test System: AMES SALMONELLA TYPHIMURIUM, Strain/Indicator: TA98, Metabolic Activation: NONE, Method: STANDARD PLATE) was “active; positive” and the mutagenic call (Test System: AMES SALMONELLA TYPHIMURIUM, Strain/Indicator: TA100, Metabolic Activation: NONE, Method: STANDARD PLATE) was “active; positive”.
In the case of `CNC(N)=O`, the mutagenic call (End Point: IN VITRO MICRONUCLEUS, Test System: V79 CELLS, Metabolic Activation: NONE) was “inactive; negative”.
